Legend:
Rattus norvegicus [1] = assay: Antidiabetic activity in Zucker rat sub-chronic fa/fa prediabetic model assessed as increase in serum adiponectin level administered orally once daily for 4 days by ELISA; type: functional, organism-based
Rattus norvegicus [2] = assay: Toxicity in Zucker rat sub-chronic fa/fa prediabetic model assessed as serum AST level at 10 mg/kg, po qd for 31 days measured on day 32 (reference value: 187 +/- 37 U/L); type: organism-based; details: in vivo, 744 h
[3] = Tmax in […] at 15 mg/kg administered via oral gavage by LC-MS analysis; type: ADME, organism-based; details: in vivo
[4] = Cmax in […] chronic ob/ob model at 10 mg/kg, po qd measured on day 1 post dose; type: ADME, organism-based; design: dose 10 mg/kg, route oral; details: in vivo
Rattus norvegicus [5] = assay: Toxicity in […] chronic ob/ob model assessed as serum creatinine level at 50 mg/kg, po qd for 31 days measured on day 32 (reference value: 0.55 +/- 0.018 mg/dl); type: organism-based; details: in vivo, 744 h
Rattus norvegicus [6] = assay: Toxicity in […] model assessed as serum BUN level at 50 mg/kg, po qd for 31 days measured on day 32 (reference value: 28.3 +/- […]); type: organism-based; details: in vivo, 744 h
Rattus norvegicus [7] = assay: Toxicity in Zucker rat sub-chronic fa/fa prediabetic model assessed as serum creatinine level at 10 mg/kg, po qd for 31 days measured on day 32 (reference value: 0.71 +/- 0.07 mg/dl); type: organism-based; details: in vivo, 744 h
[8] = Cmax in ob/ob mouse at 18 mg/kg administered via oral gavage by LC-MS analysis; type: ADME, organism-based; design: dose 18 mg/kg, route oral; details: in vivo
Rattus norvegicus [9] = species: Rattus norvegicus; assay: Toxicity in Zucker rat sub-chronic fa/fa prediabetic model assessed as increase in epididymal white adipose tissue weight during 15 day single dose study; type: organism-based; details: in vivo, 360 h
[10] = Drug uptake in kidney of Zucker rat sub-chronic fa/fa prediabetic model at 12.5 mg/kg, po qd for 11 days; type: ADME, organism-based; details: read-out: Drug uptake
Rattus norvegicus [11] = assay: Effect on PTGS2 gene expression in epididymal white adipose tissue of Zucker rat sub-chronic fa/fa prediabetic model at 10 mg/kg, po qd for 15 days by microarray analysis relative to control; type: functional
Rattus norvegicus [12] = assay: Toxicity in Zucker rat sub-chronic fa/fa prediabetic model assessed as brown adipose tissue weight at 10 mg/kg, po qd for 31 days measured on day 32 (reference value: 2.1 +/- 0.3 g); type: organism-based; details: in vivo, 744 h
[13] = Cmax in Zucker rat sub-chronic fa/fa prediabetic model at 50 mg/kg, po qd measured on day 1 post dose; type: ADME, organism-based; design: dose 50 mg/kg, route oral; details: in vivo
[14] = Tmax in ob/ob mouse at 18 mg/kg administered via oral gavage by LC-MS analysis; type: ADME, organism-based; details: in vivo
Rattus norvegicus [15] = assay: Toxicity in Zucker rat sub-chronic fa/fa prediabetic model assessed as increase in food consumption at 10 mg/kg, po qd during 10 days study; type: organism-based; details: in vivo, 240 h
Rattus norvegicus [16] = assay: Toxicity in […] chronic ob/ob model assessed as change in body weight at 10 mg/kg, po qd for 28 days measured on day 1 to 28 during compound dosing (reference value: 9.9 +/- 1.27 g); type: organism-based; details: in vivo, 672 h
Rattus norvegicus [17] = assay: Effect on NDUFV3 gene expression in epididymal white adipose tissue of Zucker rat sub-chronic fa/fa prediabetic model at 10 mg/kg, po qd for 15 days by microarray analysis relative to control; type: functional
Rattus norvegicus [18] = assay: Toxicity in Zucker rat sub-chronic fa/fa prediabetic model assessed as heart weight at 10 mg/kg, po qd for 31 days measured on day 32 (reference value: 1.19 +/- 0.04 g); type: organism-based; details: in vivo, 744 h
Rattus norvegicus [19] = assay: Antidiabetic activity in Zucker rat sub-chronic fa/fa prediabetic model assessed as increase in serum adiponectin level at 50 mg/kg, po qd for 32 days by ELISA relative to control; type: functional
Rattus norvegicus [20] = assay: Toxicity in Zucker rat sub-chronic fa/fa prediabetic model assessed as liver weight at 50 mg/kg, po qd for 31 days measured on day 32 (reference value: 28 +/- 1.6 g); type: organism-based; details: in vivo, 744 h
Rattus norvegicus [21] = assay: Antidiabetic activity in Zucker rat sub-chronic fa/fa prediabetic model assessed as decrease in plasma glucose AUC (0 to 120 mins) at 10 mg/kg, po qd during 10 days study by OGTT relative to control; type: functional; design: scale not given: the % may be the effect or the level left
Rattus norvegicus [22] = assay: Effect on MAOB gene expression in epididymal white adipose tissue of Zucker rat sub-chronic fa/fa prediabetic model at 10 mg/kg, po qd for 15 days by microarray analysis relative to control; type: functional
Rattus norvegicus [23] = assay: Toxicity in Zucker rat sub-chronic fa/fa prediabetic model assessed as body weight at 1 mg/kg, po qd for 29 days measured on day 29 post last dose (reference value: 533 +/- 10 g); type: organism-based; details: in vivo, 696 h
Rattus norvegicus [24] = assay: Toxicity in Zucker rat sub-chronic fa/fa prediabetic model assessed as epididymal white adipose tissue weight at 50 mg/kg, po qd for 31 days measured on day 32 (reference value: 13.9 +/- 0.6 g); type: organism-based; details: in vivo, 744 h
Rattus norvegicus [25] = assay: Effect on ACOT2 gene expression in epididymal white adipose tissue of Zucker rat sub-chronic fa/fa prediabetic model at 10 mg/kg, po qd for 15 days by microarray analysis relative to control; type: functional
Rattus norvegicus [26] = assay: Effect on PIK3R6 gene expression in epididymal white adipose tissue of Zucker rat sub-chronic fa/fa prediabetic model at 10 mg/kg, po qd for 15 days by microarray analysis relative to control; type: functional
Rattus norvegicus [27] = assay: Effect on AGPAT3 gene expression in epididymal white adipose tissue of Zucker rat sub-chronic fa/fa prediabetic model at 10 mg/kg, po qd for 15 days by microarray analysis relative to control; type: functional
Rattus norvegicus [28] = assay: Effect on EIF2B3 gene expression in epididymal white adipose tissue of Zucker rat sub-chronic fa/fa prediabetic model at 10 mg/kg, po qd for 15 days by microarray analysis relative to control; type: functional
Rattus norvegicus [29] = assay: Antidiabetic activity in […] chronic ob/ob model assessed as increase in plasma adiponectin level at 3 mg/kg, po qd for 31 days measured on day 32 by ELISA relative to control; type: functional
Rattus norvegicus [30] = assay: Antidiabetic activity in Zucker rat sub-chronic fa/fa prediabetic model assessed as fasting blood glucose level at 1 mg/kg, po qd for 31 days measured on day 29 post dose (reference value: 163 +/- 9.2 mg/dl); type: functional
[31] = Drug uptake in fat tissue of Zucker rat sub-chronic fa/fa prediabetic model at 12.5 mg/kg, po qd for 11 days; type: ADME, organism-based, Adipose tissue; details: read-out: Drug uptake
Rattus norvegicus [32] = assay: Effect on YWHAG gene expression in epididymal white adipose tissue of Zucker rat sub-chronic fa/fa prediabetic model at 10 mg/kg, po qd for 15 days by microarray analysis relative to control; type: functional
Rattus norvegicus [33] = assay: Toxicity in […] model assessed as serum ALT level at 50 mg/kg, po qd for 31 days measured on day 32 (reference value: 127 +/- 9 U/L); type: organism-based; details: in vivo, 744 h
Rattus norvegicus [34] = assay: Toxicity in […] chronic ob/ob model assessed as food intake at 10 mg/kg, po qd for 28 days measured on day 1 to 28 during compound dosing (reference value: 170.6 +/- 3 g); type: organism-based; details: in vivo, 672 h

In the case of CN1CC[C@@H](N2C(=O)S/C(=C\c3ccc4c(cnn4Cc4ccc(Cl)cc4C(F)(F)F)c3)C2=O)[C@H](F)C1, the Activity (Rattus norvegicus [1]) is reported as “Dose-dependent effect”, the Activity (Rattus norvegicus [2]) is reported as 98 U/L and the Tmax [3] is reported as 2.5 h. The Cmax [4] was 520 ng/mL, the Activity (Rattus norvegicus [5]) was 0.43 mg/dL and the Activity (Rattus norvegicus [6]) was 29.5 mg/dL. For the same compound, the Activity (Rattus norvegicus [7]) was 0.57 mg/dL, the Cmax [8] was 829 ng/mL and the Activity (Rattus norvegicus [9]) was “Non-Toxic”. For the same compound, the concentration at 264 h [10] was 2660 ng/g, the “fold change (FC)” value (Rattus norvegicus [11]) was -1.389 and the Activity (Rattus norvegicus [12]) was 8.7 g. For the same compound, the Cmax [13] was 8380 ng/mL, the Tmax [14] was 2 h and the Activity (Rattus norvegicus [15]) was “Non-Toxic”. For the same compound, the Activity (Rattus norvegicus [16]) was 8.7 g, the “fold change (FC)” value (Rattus norvegicus [17]) was 1.257 and the Activity (Rattus norvegicus [18]) was 1.11 g. For the same compound, the “fold change (FC)” value (Rattus norvegicus [19]) was 3.3, the Activity (Rattus norvegicus [20]) was 17.8 g and the Activity (Rattus norvegicus [21]) was -46%. The “fold change (FC)” value (Rattus norvegicus [22]) was -1.452, the Activity (Rattus norvegicus [23]) was 525 g and the Activity (Rattus norvegicus [24]) was 19.3 g. For the same compound, the “fold change (FC)” value (Rattus norvegicus [25]) was 1.364, the “fold change (FC)” value (Rattus norvegicus [26]) was -1.276 and the “fold change (FC)” value (Rattus norvegicus [27]) was -1.213. The “fold change (FC)” value (Rattus norvegicus [28]) was 1.203, the “fold change (FC)” value (Rattus norvegicus [29]) was 1.4 and the Activity (Rattus norvegicus [30]) was 123 mg/dL. For the same compound, the concentration at 264 h [31] was 58100 ng/g, the “fold change (FC)” value (Rattus norvegicus [32]) was 1.255 and the Activity (Rattus norvegicus [33]) was 149 U/L. It also gave an Activity (Rattus norvegicus [34]) of 167.8 g.
